Molecules are shown by their SMILES.

Data on twelve compounds can be found in patent publication US20260035389A1, “TETRAHYDROPYRIDOPYRIMIDINE PAN-KRAS INHIBITORS” (Mirati Therapeutics, Inc., priority 2020, published 2026).

One assay deals with ASPC1 cells. The experiment in a line: Cisbio HTRF Advanced pERK assay. The assay is classed as cell-based. The conditions noted are these: AsPC-1 cells, 3 hrs, read-out: Inhibition (HTRF IC50 nM) of KRas-mediated Phosphorylation of ERK, AsPC-1. In general terms: In TR-FRET formats the signal depends on donor and acceptor labels being close together.
The test system of a further assay is H727 cells. The experiment in a line: Cisbio HTRF Advanced pERK assay. Particulars: 3 hrs, read-out: Inhibition (HTRF IC50 nM) of KRas-mediated Phosphorylation of ERK, H727. The assay is classed as cell-based.
In a further assay the test system is MKN1 cells. Put plainly: Cisbio HTRF Advanced pERK assay. The conditions noted are these: 3 hour, read-out: Inhibition (HTRF IC50 nM) of KRas-mediated Phosphorylation of ERK, MKN1. The assay is classed as cell-based. The procedure: (§1) Cisbio HTRF Advanced pERK Assay Catalog #64AERPEH • Cells: MKN1, PSN1 • Procedure: • Day 1: Seed 6,000 cells/well −25 μl/well in 384-well white solid bottom plate; RPM1_10% FBS.

The subject of another assay is PSN1 cells. The experiment in a line: Cisbio HTRF Advanced pERK assay. It counts as cell-based. Particulars: 3 hour, read-out: Inhibition (HTRF IC50 nM) of KRas-mediated Phosphorylation of ERK, PSN1. The procedure:
as §1

The next assay has as its target KRas^G13D (Homo sapiens, UniProt P01116, G13D). The experiment in a line: biochemical.
The next assay has as its target KRas^G12R (Homo sapiens, UniProt P01116, G12R). The experiment in a line: KRas binding assay (TR-FRET displacement).
The target of a further assay is KRas^G12V (Homo sapiens, UniProt P01116, G12V). The experiment in a line: KRas binding assay (TR-FRET displacement).
The next assay addresses KRas^Q61H (Homo sapiens, UniProt P01116, Q61H). The experiment in a line: biochemical.

KRas^G12V, sequence (P01116 1-169 isoform P01116-2 G12V): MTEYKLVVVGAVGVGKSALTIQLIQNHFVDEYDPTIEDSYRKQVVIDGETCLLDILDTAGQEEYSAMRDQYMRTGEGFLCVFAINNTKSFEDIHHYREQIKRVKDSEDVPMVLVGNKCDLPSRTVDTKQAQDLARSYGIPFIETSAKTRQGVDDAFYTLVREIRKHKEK
KRas^G13D, sequence (P01116 1-169 isoform P01116-2 G13D): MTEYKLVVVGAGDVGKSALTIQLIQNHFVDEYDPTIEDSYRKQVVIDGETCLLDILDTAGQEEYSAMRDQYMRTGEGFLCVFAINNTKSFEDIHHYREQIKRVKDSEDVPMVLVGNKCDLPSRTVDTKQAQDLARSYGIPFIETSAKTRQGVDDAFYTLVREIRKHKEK
KRas^G12R, sequence (P01116 1-169 isoform P01116-2 G12R): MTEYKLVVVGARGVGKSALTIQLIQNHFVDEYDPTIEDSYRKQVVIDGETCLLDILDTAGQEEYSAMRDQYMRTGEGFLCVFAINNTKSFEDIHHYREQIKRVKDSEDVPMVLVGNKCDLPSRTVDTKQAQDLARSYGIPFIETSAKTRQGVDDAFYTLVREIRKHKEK
KRas^Q61H, sequence (P01116 1-169 isoform P01116-2 Q61H): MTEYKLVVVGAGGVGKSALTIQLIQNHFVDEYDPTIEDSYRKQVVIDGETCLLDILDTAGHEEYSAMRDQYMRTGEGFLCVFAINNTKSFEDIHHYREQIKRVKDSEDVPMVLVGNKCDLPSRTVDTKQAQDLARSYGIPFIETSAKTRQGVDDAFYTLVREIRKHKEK

In the case of `Oc1cc(N2CCc3c(nc(OC[C@@]45CCCN4C[C@H](F)C5)nc3N3CC4CC(O)CC3C4)C2)c2c(Cl)c(F)ccc2c1` (single isomer, unassigned) [Example 76], the IC50 (usually the concentration that gives 50% inhibition) in the assay on ASPC1 cells was 2070 nM; in the assay with H727 cells, 1780 nM; with MKN1 cells, 468 nM.

Regarding `Oc1cc(N2CCc3c(nc(OC[C@@]45CCCN4C[C@H](F)C5)nc3N3CC4CC(O)CC3C4)C2)c2c(Cl)c(F)ccc2c1` (single isomer, unassigned) [Example 77], the IC50 in the assay on ASPC1 cells is 9110 nM; with H727 cells, 8300 nM; in the assay with MKN1 cells, 2660 nM; in the assay with PSN1 cells it was no less than 10000 nM.

Turning to `Oc1cc(N2CCc3c(nc(OC[C@@]45CCCN4C[C@H](F)C5)nc3N3CC4CC(O)CC3C4)C2)c2c(Br)c(F)ccc2c1` (single isomer, unassigned) [Example 213], the IC50 with ASPC1 cells came to 1740 nM; with H727 cells, 1170 nM; in the assay on MKN1 cells, 148 nM. For the compound `Oc1cc(N2CCc3c(nc(OC[C@@]45CCCN4C[C@H](F)C5)nc3N3CC4CC(O)CC3C4)C2)c2c(Br)c(F)ccc2c1` (single isomer, unassigned) [Example 214], the IC50 with ASPC1 cells is no less than 10000 nM; in the assay on H727 cells it was 7430 nM; with MKN1 cells, 1700 nM; in the assay with PSN1 cells it was no less than 10000 nM. For the compound `CCc1c(F)ccc2cc(O)cc(N3CCc4c(nc(OC[C@@]56CCCN5C[C@H](F)C6)nc4N4CCC[C@@](C)(O)C4)C3)c12` [Example 2, (R)-1-(7-(8-ethyl-7-fluoro-3-hydroxynaphthalen-1-yl)-2-(((2R,7aS)-2-fluorohexahydro-1H-pyrrolizin-7a-yl)methoxy)-5,6,7,8-tetrahydropyrido[3,4-d]pyrimidin-4-yl)-3-methylpiperidin-3-ol], the 50% inhibitory concentration (IC50) at KRas^G13D was no more than 2 nM. Consider `CCc1c(F)ccc2cc(O)cc(N3CCc4c(nc(OC[C@@]56CCCN5C[C@H](F)C6)nc4N4CCOCC(C)(O)C4)C3)c12` (stereo partly drawn) [Example 20, 4-(7-(8-ethyl-7-fluoro-3-hydroxynaphthalen-1-yl)-2-(((2R,7aS)-2-fluorohexahydro-1H-pyrrolizin-7a-yl)methoxy)-5,6,7,8-tetrahydropyrido[3,4-d]pyrimidin-4-yl)-6-methyl-1,4-oxazepan-6-ol], for which the IC50 on KRas^G12R was no more than 2 nM.

`CCc1c(F)ccc2cc(O)cc(N3CCc4c(nc(OC[C@@]56CCCN5C[C@H](F)C6)nc4N4CC5CC(O)CC4C5)C3)c12` (stereo partly drawn) [Example 35, 6-(7-(8-ethyl-7-fluoro-3-hydroxynaphthalen-1-yl)-2-(((2R,7aS)-2-fluorohexahydro-1H-pyrrolizin-7a-yl)methoxy)-5,6,7,8-tetrahydropyrido[3,4-d]pyrimidin-4-yl)-6-azabicyclo[3.2.1]octan-3-ol]: on KRas^G12V, the IC50 is no more than 2 nM. Same read-out and setting: with `O=C1NC(=O)C2(CCCN(c3nc(OC[C@@]45CCCN4C[C@H](F)C5)nc4c3CCN(c3cc(O)cc5ccc(F)c(Cl)c35)C4)C2)N1` (stereo partly drawn) [Example 69, 7-(7-(8-chloro-7-fluoro-3-hydroxynaphthalen-1-yl)-2-(((2R,7aS)-2-fluorohexahydro-1H-pyrrolizin-7a-yl)methoxy)-5,6,7,8-tetrahydropyrido[3,4-d]pyrimidin-4-yl)-1,3,7-triazaspiro[4.5]decane-2,4-dione] the figure was no more than 2 nM. Regarding `CCc1cccc2cccc(N3CCc4c(nc(OCC56CCCN5CCC6)nc4N4CCCC(P(C)(C)=O)C4)C3)c12` (stereo not shown) [Example 112, (1-(7-(8-ethylnaphthalen-1-yl)-2-((tetrahydro-1H-pyrrolizin-7a(5H)-yl)methoxy)-5,6,7,8-tetrahydropyrido[3,4-d]pyrimidin-4-yl)piperidin-3-yl)dimethylphosphine oxide], the half-maximal inhibitory concentration (IC50) at KRas^Q61H was 647 nM.

At KRas^G12V, `CCc1c(F)ccc2cc(O)cc(N3CCc4c(nc(OC[C@@]56CCCN5C[C@H](F)C6)nc4N4CCCn5nc(C(=O)N(C)C)c(C)c5C4)C3)c12` [Example 189, 5-(7-(8-ethyl-7-fluoro-3-hydroxynaphthalen-1-yl)-2-(((2R,7aS)-2-fluorotetrahydro-1H-pyrrolizin-7a(5H)-yl)methoxy)-5,6,7,8-tetrahydropyrido[3,4-d]pyrimidin-4-yl)-N,N,3-trimethyl-5,6,7,8-tetrahydro-4H-pyrazolo[1,5-a][1,4]diazepine-2-carboxamide] came in with a half-maximal inhibitory concentration (IC50) of no more than 2 nM. Still for that read-out and setting: with `CCc1c(F)ccc2cc(O)cc(N3CCc4c(nc(OC[C@@]56CCCN5C[C@H](F)C6)nc4N4CCCn5nc(C(=O)N6CCCC6)cc5C4)C3)c12` [Example 191, (5-(7-(8-ethyl-7-fluoro-3-hydroxynaphthalen-1-yl)-2-(((2R,7aS)-2-fluorotetrahydro-1H-pyrrolizin-7a(5H)-yl)methoxy)-5,6,7,8-tetrahydropyrido[3,4-d]pyrimidin-4-yl)-5,6,7,8-tetrahydro-4H-pyrazolo[1,5-a][1,4]diazepin-2-yl)(pyrrolidin-1-yl)methanone] the figure was no more than 2 nM; with `CCc1c(F)ccc2cc(O)cc(N3CCc4c(nc(OCC5(CN(C)C)CC5)nc4N4CCCn5nc(C(=O)N(C)C)cc5C4)C3)c12` [Example 203, 5-(2-((1-((dimethylamino)methyl)cyclopropyl)methoxy)-7-(8-ethyl-7-fluoro-3-hydroxynaphthalen-1-yl)-5,6,7,8-tetrahydropyrido[3,4-d]pyrimidin-4-yl)-N,N-dimethyl-5,6,7,8-tetrahydro-4H-pyrazolo[1,5-a][1,4]diazepine-2-carboxamide], no more than 2 nM.
